{
  "source": "patent US9346789B2",
  "about": "“Combinations of AKT inhibitor compounds and abiraterone, and methods of use” (Genentech, Inc., priority 2011, dated 2016)",
  "origin": "cited, not measured here",
  "target": "T1, topoisomerase I (Homo sapiens, UniProt P11387)",
  "T1 sequence (P11387 1-765)": "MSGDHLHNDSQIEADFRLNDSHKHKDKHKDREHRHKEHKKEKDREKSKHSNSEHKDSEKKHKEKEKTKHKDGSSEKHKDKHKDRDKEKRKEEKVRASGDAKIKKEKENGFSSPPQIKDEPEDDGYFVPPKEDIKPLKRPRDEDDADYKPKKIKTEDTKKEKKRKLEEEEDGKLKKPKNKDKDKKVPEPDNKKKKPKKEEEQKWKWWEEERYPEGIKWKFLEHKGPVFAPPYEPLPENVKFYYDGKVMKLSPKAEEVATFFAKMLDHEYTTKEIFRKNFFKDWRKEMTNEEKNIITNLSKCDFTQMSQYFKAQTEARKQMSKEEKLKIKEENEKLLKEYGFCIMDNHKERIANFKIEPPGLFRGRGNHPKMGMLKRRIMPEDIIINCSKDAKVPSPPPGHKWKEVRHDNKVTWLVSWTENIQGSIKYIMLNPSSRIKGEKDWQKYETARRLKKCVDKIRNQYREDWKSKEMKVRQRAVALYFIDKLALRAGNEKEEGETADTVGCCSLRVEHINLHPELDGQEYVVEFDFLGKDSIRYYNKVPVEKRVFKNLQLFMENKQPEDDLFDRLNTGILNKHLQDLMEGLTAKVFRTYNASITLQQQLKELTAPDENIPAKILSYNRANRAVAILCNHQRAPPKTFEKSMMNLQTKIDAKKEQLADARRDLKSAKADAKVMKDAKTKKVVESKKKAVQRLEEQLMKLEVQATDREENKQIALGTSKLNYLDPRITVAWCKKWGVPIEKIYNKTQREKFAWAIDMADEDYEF",
  "settings": "active metabolite versus irinotecan itself",
  "data": [
    {"smiles": "CCc1c2c(nc3ccc(O)cc13)-c1cc3c(c(=O)n1C2)COC(=O)[C@]3(O)CC", "note": "[SN-38, 7-ethyl-10-hydroxy-camptothecin]", "values": [
      {"measurement": "activity relative to irinotecan", "result": 200, "unit": "times"}
    ]}
  ]
}
